Assay results: patent publication US10738070B2, “Mannose-derived antagonists of FimH useful for treating disease” (Fimbrion Therapeutics, Inc., priority 2016, dated 2020)

Key:
FimHL = FimHL (Escherichia coli, UniProt P08191); experiment: Differential scanning fluorimetry (DSF); format: binding; settings: purified FimHL 10 μM with mannoside 100 μM; mean of two biological replicates
Description: Differential scanning fluorimetry (DSF) Purified FimHL (10 μM) in the absence or presence of mannoside (100 μM) was combined with 5× SYPRO Orange in a 50 μl reaction mixture buffered in 20 mM HEPES pH 7.5, 150 mM NaCl (HBS) and 0.4% DMSO. Binding equilibria were established by allowing the reaction mixtures to incubate at 23° C. for 30 min. These reaction mixtures were then placed in 96-well clear-bottom PCR plates and subjected to a melt curve from 20-90° C. in 0.5° C. increments of 15 seconds, each followed by a fluorescence read of the “HEX” channel in a Bio-Rad CFX96 thermocycler (Bio-Rad, Hercules, Calif.). Melt curves were fitted to the Boltzmann equation (y=A2+(A1−A2)/(1+exp((x−xo)/dx)) where xo is the Tm) to determine the melting temperature (Tm) using GraphPad Prism 6 (San Diego Calif.). Melting temperatures are represented as the mean and standard error of two biological replicates, each of which consisted of three technical replicates. Compounds not listed were not tested.

UTI89 bacteria = experiment: Biofilm inhibition assay; format: cell-based; settings: read-out: Biofilm prevention IC50
Description: Biofilm Assay The biofilm inhibition assay was performed with UTI89 bacteria as previously described (L. Cegelski, J. S. Pinkner, N. D. Hammer, C. K. Cusumano, C. S. Hung, E. Chorell, V. Aberg, J. N. Walker, P. C. Seed, F. Almqvist, M. R. Chapman, S. J. Hultgren Nature Chem. Biol. 2009, 5, 913-919). Compounds not listed were not tested.

FimH = target: T1, FimH (Escherichia coli, UniProt Q1R2J4); experiment: Hemagglutination inhibition (HAI) assay with UTI89 bacteria and guinea pig red blood cells; format: cell-based; settings: concentration reducing bacterial agglutination of guinea pig red blood cells by greater than 90%; UTI89 bacteria
T1 construct: endogenous in cells; host or cells: E. coli UTI89 bacteria
Description: “HAI or EC>90” is that concentration of the FimH inhibitor/antagonist which reduces the bacterial agglutination of guinea pig red blood cells by greater than 90%.
HAI Assay The hemagglutination inhibition (HAI) assay was performed with UTI89 bacteria and guinea pig red blood cells, as previously described (S. J. Hultgren, W. R. Schwan, A. J. Schaeffer, J. L. Duncan Infect. Immun. 1986, 54, 613-620). Compounds not listed were not tested.

SMILES | DSF Melting Temp (FimHL) [°C] | IC50 (UTI89 bacteria) [nM] | HAI titer EC>90 (FimH) [µM]
Cc1cc(-n2cc(-c3ccccc3)nn2)ccc1O[C@H]1O[C@H](CO)[C@@H](O)[C@H](O)[C@@H]1O [Example 4, 2-methyl-4-[4-(phenyl)-1H-1,2,3-triazol-1-yl]phenyl α-D-mannopyranoside] | 74.1 | 320 | 0.032
CC(=O)Nc1ccc(Oc2cc(C)c(O[C@H]3O[C@H](CO)[C@@H](O)[C@H](O)[C@@H]3O)cc2[N+](=O)[O-])cc1 [Example 33, N-(4-[4-(α-D-mannopyranosyloxy)-5-methyl-2-nitrophenoxy]phenyl)acetamide] | – | – | 0.25
COC(=O)c1cncc(-c2ccc(O[C@H]3O[C@H](CO)[C@@H](O)[C@H](O)[C@@H]3O)c(C)c2)c1 [Example 11, 5-[4′-(α-D-mannopyranosyloxy)-3′-methylphenyl]-3-pyridinecarboxylic acid methyl ester] | – | – | 0.032
Cc1cc(Oc2ccc(C#N)cc2)c([N+](=O)[O-])cc1O[C@H]1O[C@H](CO)[C@@H](O)[C@H](O)[C@@H]1O [Example 32, 4-[4-(α-D-mannopyranosyloxy)-5-methyl-2-nitrophenoxy]benzonitrile] | – | – | 0.5
Cc1cc(-c2cccc(C(=O)N3CCNCC3)c2)ccc1O[C@H]1O[C@H](CO)[C@@H](O)[C@H](O)[C@@H]1O [Example 8, 3-methyl-3′-(piperazin-1-ylcarbonyl)biphenyl-4-yl α-D-mannopyranoside] | – | – | 0.25
Cc1cc(-c2ccc3[nH]nc(C)c3c2)ccc1O[C@H]1O[C@H](CO)[C@@H](O)[C@H](O)[C@@H]1O [Example 12, 3-Methyl-5-[4′-(α-D-mannopyranosyloxy) 3′-methylphenyl]-1H-indazole] | – | – | 0.062
Cc1cc(-c2cncc(C(=O)O)c2)ccc1O[C@H]1O[C@H](CO)[C@@H](O)[C@H](O)[C@@H]1O [Example 24, 5-[4′-(α-D-mannopyranosyloxy)-3′-methylphenyl]-3-pyridinecarboxylic acid] | – | – | 0.25
Cc1cc(-c2cccc3cnccc23)ccc1O[C@H]1O[C@H](CO)[C@@H](O)[C@H](O)[C@@H]1O [Example 15, 5-[4′-(α-D-mannopyranosyloxy)-3′-methylphenyl]-isoquinoline] | – | – | 0.062
Cc1cc(-c2cccc3c(=O)[nH]ccc23)ccc1O[C@H]1O[C@H](CO)[C@@H](O)[C@H](O)[C@@H]1O [Example 16, 5-[4′-(α-D-mannopyranosyloxy)-3′-methylphenyl]-1(2H)-isoquinolinone] | – | – | 0.125
Cc1cc(-n2cc(-c3cccc(C(=O)O)c3)nn2)ccc1O[C@H]1O[C@H](CO)[C@@H](O)[C@H](O)[C@@H]1O [Example 5, 2-methyl-4-[4-(3-carboxyphenyl)-1H-1,2,3-triazol-1-yl]phenyl α-D-mannopyranoside] | – | – | 0.062
Cc1cc(-n2cc(-c3ccccc3N)nn2)ccc1O[C@H]1O[C@H](CO)[C@@H](O)[C@H](O)[C@@H]1O [Example 28, 2-methyl-4-[4-(2-aminophenyl)-1H-1,2,3-triazol-1-yl]phenyl α-D-mannopyranoside] | – | – | 0.15
Cc1cc(-c2cc3[nH]c(=O)[nH]c(=O)c3s2)ccc1O[C@H]1O[C@H](CO)[C@@H](O)[C@H](O)[C@@H]1O [Example 25, 6-[4′-(α-D-mannopyranosyloxy)-3′-methylphenyl]-thieno[3,2-d]pyrimidine-2,4(1H,3H)-dione] | – | – | 0.024
Cc1cc(-c2cccc(C(=O)N3CCOCC3)c2)ccc1O[C@H]1O[C@H](CO)[C@@H](O)[C@H](O)[C@@H]1O [Example 7, 3-methyl-3′-(morpholin-4-ylcarbonyl)biphenyl-4-yl α-D-mannopyranoside] | – | – | 0.25
Cc1cc(-c2ccc3c(c2)C(=O)NCC3)ccc1OC1OC(CO)C(O)C(O)C1O [Example 21, 3,4-Dihydro-7-[4′-(α-D-mannopyranosyloxy)-3′-methylphenyl]-1(2H)-iso-quinolinone] | 75.0 | 247 | 0.032
Cc1cc(-c2ccc3ccn(C(C)C)c(=O)c3c2)ccc1O[C@H]1O[C@H](CO)[C@@H](O)[C@H](O)[C@@H]1O [Example 26, 2-isopropyl-7-[4′-(α-D-mannopyranosyloxy)-3′-methylphenyl]-1(2H)-isoquinolinone] | – | – | 0.043
Cc1cc(-c2cncc(C(=O)NC(C)C)c2)ccc1O[C@H]1O[C@H](CO)[C@@H](O)[C@H](O)[C@@H]1O [Example 9, 5-[4′-(α-D-mannopyranosyloxy)-3′-methylphenyl]-N-isopropyl-3-pyridinecarboxamide] | – | – | 0.032
Cc1cc(Oc2ccc3cccnc3c2)c([N+](=O)[O-])cc1O[C@H]1O[C@H](CO)[C@@H](O)[C@H](O)[C@@H]1O [Example 36, 7-[4-(α-D-mannopyranosyloxy)-5-methyl-2-nitrophenoxy]quinoline] | – | – | 0.5
Cc1cc(-c2ccc3ccnc(N)c3c2)ccc1O[C@H]1O[C@H](CO)[C@@H](O)[C@H](O)[C@@H]1O [Example 14, 7-[4′-(α-D-mannopyranosyloxy)-3′-methylphenyl]-isoquinolin-1-amine] | 75.1 | 336 | 0.02
Cc1cc(-c2ccc3cc[nH]c(=O)c3c2)cc(C)c1OC1OC(CO)C(O)C(O)C1O [Example 38, 7-[4′-(α-D-mannopyranosyloxy)-3′,5′-dimethylphenyl]-1(2H)-iso-quinolinone] | – | – | 0.266
Cc1cc(-n2cc(-c3ccccn3)nn2)ccc1O[C@H]1O[C@H](CO)[C@@H](O)[C@H](O)[C@@H]1O [Example 3, 2-methyl-4-[4-(pyridin-2-yl)-1H-1,2,3-triazol-1-yl]phenyl α-D-mannopyranoside] | – | – | 0.062
Cc1cc(Oc2ccc3ccncc3c2)c([N+](=O)[O-])cc1O[C@H]1O[C@H](CO)[C@@H](O)[C@H](O)[C@@H]1O [Example 34, 7-[4-(α-D-mannopyranosyloxy)-5-methyl-2-nitrophenoxy]isoquinoline] | – | – | 0.125
CNC(=O)c1cc(C(=O)O)cc(-c2ccc(O[C@H]3O[C@H](CO)[C@@H](O)[C@H](O)[C@@H]3O)c(C)c2)c1 [Example 23, 4′-(α-D-mannopyranosyloxy)-3′-methyl-5-[(methylamino)carbonyl]-[1,1′biphenyl]-3-carboxylic acid] | – | – | 0.032
Cc1cc(-n2cc(-c3cccnc3)nn2)ccc1O[C@H]1O[C@H](CO)[C@@H](O)[C@H](O)[C@@H]1O [Example 2, 2-methyl-4-[4-(pyridin-3-yl)-1H-1,2,3-triazol-1-yl]phenyl α-D-mannopyranoside] | 74.4 | 524 | 0.032
Cc1cc(Oc2ccccc2[N+](=O)[O-])c([N+](=O)[O-])cc1O[C@H]1O[C@H](CO)[C@@H](O)[C@H](O)[C@@H]1O [Example 29, 2-[4-(α-D-mannopyranosyloxy)-5-methyl-2-nitrophenoxy]nitrobenzene] | – | – | 1
